In patent US12227500B2, “Substituted pyrrolo[2,3-b]pyridines for suppressing toxic endoplasmic reticulum stress” (THE TRUSTEES OF COLUMBIA UNIVERSITY IN THE CITY OF NEW YORK, priority 2018, dated 2025):
Like-named read-outs stand apart in the source and are kept apart here.

Columns and labels:
MLK1/MAP3K9 = biological target: T1, MLK1/MAP3K9 (Homo sapiens, UniProt P80192); assay: Radiolabeled ATP kinase assay (Reaction Biology Corp.), MLK1; assay type: biochemical; conditions: [Cmpd] 0.1 μM, 10 μM ATP
T1 construct: purchased Reaction Biology Corp
T1 sequence (P80192 whole entry): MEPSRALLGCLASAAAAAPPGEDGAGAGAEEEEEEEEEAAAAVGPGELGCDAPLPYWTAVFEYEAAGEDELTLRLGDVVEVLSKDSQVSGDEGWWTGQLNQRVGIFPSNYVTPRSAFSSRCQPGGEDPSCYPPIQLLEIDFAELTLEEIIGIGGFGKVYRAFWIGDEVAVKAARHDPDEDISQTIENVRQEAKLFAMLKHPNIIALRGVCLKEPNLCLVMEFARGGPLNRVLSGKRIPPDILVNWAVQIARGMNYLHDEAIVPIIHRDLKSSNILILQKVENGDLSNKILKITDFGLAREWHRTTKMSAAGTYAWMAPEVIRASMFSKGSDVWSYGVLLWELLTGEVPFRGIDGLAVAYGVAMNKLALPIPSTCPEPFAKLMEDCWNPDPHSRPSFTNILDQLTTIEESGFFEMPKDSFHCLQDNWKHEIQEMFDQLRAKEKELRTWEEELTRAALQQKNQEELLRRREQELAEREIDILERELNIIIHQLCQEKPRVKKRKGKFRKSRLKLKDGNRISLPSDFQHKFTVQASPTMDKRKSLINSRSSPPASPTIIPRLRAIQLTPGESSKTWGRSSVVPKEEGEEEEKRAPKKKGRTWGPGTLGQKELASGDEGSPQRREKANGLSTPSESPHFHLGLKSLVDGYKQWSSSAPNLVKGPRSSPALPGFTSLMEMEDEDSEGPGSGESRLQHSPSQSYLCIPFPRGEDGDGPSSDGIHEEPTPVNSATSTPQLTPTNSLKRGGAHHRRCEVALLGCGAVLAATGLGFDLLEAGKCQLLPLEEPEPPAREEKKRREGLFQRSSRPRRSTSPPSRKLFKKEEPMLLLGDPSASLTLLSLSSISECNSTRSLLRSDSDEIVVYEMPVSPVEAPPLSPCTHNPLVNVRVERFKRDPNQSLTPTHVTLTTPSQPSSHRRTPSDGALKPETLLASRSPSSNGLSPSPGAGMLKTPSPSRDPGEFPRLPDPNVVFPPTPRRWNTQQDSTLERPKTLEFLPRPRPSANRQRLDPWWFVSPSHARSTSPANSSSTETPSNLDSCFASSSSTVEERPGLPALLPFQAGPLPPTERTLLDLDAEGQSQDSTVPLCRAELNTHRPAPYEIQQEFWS
Protocol: (§1) Meanwhile, the same analogs were analyzed in a radiolabeled ATP assay (10 μM ATP; Reaction Biology Corp.) to compare the extent to which they could inhibit the activity of HGK, MLK1, or MLK3 in a cell-free environment (Table S3 and S4).

HGK/MAP4K4 = HGK/MAP4K4 (Homo sapiens, UniProt O95819); assay: Radiolabeled ATP kinase assay (Reaction Biology Corp.), HGK; assay type: biochemical; design: purchased Reaction Biology Corp; conditions: 10 μM ATP, read-out: % Enzyme Activity (relative to DMSO controls), HGK/MAP4K4, Data 1; for remaining activity at 0.025 µM: [Cmpd] 0.025 μM; for remaining activity at 0.1 µM: [Cmpd] 0.1 μM
Chain of HGK/MAP4K4 (O95819 whole entry): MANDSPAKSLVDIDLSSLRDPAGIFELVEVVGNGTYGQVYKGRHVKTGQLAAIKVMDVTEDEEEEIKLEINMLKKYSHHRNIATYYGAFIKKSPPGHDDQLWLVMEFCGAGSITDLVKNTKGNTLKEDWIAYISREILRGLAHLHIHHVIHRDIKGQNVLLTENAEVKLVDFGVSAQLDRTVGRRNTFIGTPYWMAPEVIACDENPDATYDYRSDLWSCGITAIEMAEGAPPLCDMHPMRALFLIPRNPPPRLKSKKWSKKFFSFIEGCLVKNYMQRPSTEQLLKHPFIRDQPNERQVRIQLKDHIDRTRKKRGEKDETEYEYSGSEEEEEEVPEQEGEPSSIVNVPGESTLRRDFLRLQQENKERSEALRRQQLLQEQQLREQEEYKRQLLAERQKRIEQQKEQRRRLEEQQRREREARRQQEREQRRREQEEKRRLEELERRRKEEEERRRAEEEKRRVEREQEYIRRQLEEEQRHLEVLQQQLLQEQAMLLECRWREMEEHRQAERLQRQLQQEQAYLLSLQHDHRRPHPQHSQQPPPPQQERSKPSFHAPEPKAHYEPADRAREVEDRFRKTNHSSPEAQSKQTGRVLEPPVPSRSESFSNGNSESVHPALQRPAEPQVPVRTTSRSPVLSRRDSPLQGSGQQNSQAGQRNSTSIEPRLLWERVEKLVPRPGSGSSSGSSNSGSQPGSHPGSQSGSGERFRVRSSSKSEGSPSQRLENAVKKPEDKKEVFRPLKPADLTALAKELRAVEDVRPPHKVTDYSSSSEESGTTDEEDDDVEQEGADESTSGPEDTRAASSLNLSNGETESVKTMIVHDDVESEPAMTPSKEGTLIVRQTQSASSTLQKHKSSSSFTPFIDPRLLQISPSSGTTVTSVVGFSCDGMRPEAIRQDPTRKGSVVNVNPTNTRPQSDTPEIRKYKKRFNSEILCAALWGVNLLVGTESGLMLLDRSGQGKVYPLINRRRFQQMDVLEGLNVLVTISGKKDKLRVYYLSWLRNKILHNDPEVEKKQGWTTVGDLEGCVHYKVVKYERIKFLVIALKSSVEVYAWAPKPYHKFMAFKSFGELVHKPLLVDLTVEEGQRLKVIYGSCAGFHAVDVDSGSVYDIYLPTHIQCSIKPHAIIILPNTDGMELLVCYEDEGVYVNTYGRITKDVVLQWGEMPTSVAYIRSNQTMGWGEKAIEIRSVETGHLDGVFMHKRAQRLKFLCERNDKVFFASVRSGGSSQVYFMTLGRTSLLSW
Protocol: as §1

[1] = test system: human ES motor neurons carrying the ALS-causing SOD1^A4V mutation; assay: cells; assay type: cell-based; conditions: 72 h, 72 h; for EC50 / Emax: CPA 33 μM; for viability at 1 µM: CPA (33 μM) + compound (1 μM), read-out: Motor Neuron Survival, % untreated; for Emax: read-out: Emax (MN survival % untreated)
Protocol: Next, survival assays were performed with all the analogs at once to generate a low-variability dataset. All compounds were evaluated at concentrations ranging from 0.1-3.0 μM (five-point dilution) in three technical replicates and two biological replicates.

MLK3/MAP3K11 = biological target: T2, MLK3/MAP3K11 (Homo sapiens, UniProt Q16584); assay: Radiolabeled ATP kinase assay (Reaction Biology Corp.), MLK3; assay type: biochemical; conditions: [Cmpd] 0.1 μM; 10 μM ATP
T2 construct: purchased Reaction Biology Corp
T2 sequence (Q16584 whole entry): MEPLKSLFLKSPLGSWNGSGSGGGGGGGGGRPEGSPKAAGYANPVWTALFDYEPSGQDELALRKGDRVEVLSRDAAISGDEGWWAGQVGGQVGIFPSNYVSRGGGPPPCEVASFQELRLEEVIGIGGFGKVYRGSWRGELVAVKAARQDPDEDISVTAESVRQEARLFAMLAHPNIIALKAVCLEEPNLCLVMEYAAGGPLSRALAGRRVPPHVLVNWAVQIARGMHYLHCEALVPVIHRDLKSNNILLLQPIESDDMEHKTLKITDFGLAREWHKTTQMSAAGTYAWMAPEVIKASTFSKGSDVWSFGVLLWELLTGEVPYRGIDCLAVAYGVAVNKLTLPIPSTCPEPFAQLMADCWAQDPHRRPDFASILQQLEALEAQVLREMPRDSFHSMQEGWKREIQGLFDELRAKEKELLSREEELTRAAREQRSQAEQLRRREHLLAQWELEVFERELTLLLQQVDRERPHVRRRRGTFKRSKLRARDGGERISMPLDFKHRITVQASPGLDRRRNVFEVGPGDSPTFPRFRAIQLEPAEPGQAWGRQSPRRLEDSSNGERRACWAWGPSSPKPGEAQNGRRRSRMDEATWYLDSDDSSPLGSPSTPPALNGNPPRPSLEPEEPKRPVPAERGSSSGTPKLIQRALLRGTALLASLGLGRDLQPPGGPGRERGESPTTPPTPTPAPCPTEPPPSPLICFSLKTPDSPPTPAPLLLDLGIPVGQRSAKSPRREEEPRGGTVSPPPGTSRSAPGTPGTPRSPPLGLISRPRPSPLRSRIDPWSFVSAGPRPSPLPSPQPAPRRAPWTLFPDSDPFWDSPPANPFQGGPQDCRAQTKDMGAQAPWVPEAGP
Protocol: as §1

[2] = read-out: % Enzyme Activity Remaining (relative to DMSO controls), MLK1/MAP3K9, Data 1
[3] = read-out: % Enzyme Activity Remaining (relative to DMSO controls), MLK1/MAP3K9, Data 2
[4] = Homo sapiens, Neuron, read-out: EC50

Row | SMILES | remaining activity at 0.1 µM (MLK1/MAP3K9; [2]) [%] | remaining activity at 0.1 µM (MLK1/MAP3K9; [3]) [%] | remaining activity at 0.025 µM (HGK/MAP4K4) [%] | remaining activity at 0.1 µM (HGK/MAP4K4) [%] | EC50 [1, 4] [nM] | viability at 1 µM ([1]; Homo sapiens, Neuron) [%] | Emax ([1]; Homo sapiens, Neuron) [%] | % Enzyme Activity Remaining (relative to DMSO controls), MLK3/MAP3K11, Data 1 (MLK3/MAP3K11) [%] | % Enzyme Activity Remaining (relative to DMSO controls), MLK3/MAP3K11, Data 2 (MLK3/MAP3K11) [%] | EC50 [1]
1 | CN1CCN(Cc2ccc(-c3cnc4[nH]cc(-c5ccc(S(C)(=O)=O)nc5)c4c3)cc2)CC1 [Compound 7u, 5-(4-((4-Methylpiperazin-1-yl)methyl)phenyl)-3-(6-(methylsulfonyl)pyridin-3-yl)-1H-pyrrolo[2,3-b]pyridine] | 93.9 | 95.9 | 92.9 | 52.3 | 4600 | 33 | 72.9 | 92.02 | 90.70 | 
2 | CN1CCN(Cc2ccc(-c3cnc4[nH]cc(-c5cccc(N)c5)c4c3)cc2)CC1 [Compound 7h, 3-(5-(4-((4-Methylpiperazin-1-yl)methyl)phenyl)-1H-pyrrolo[2,3-b]pyridin-3-yl)aniline] | 48.8 | 43.2 | 98.8 | 87.4 | 177 | 106 | 115 | 62.91 | 63.31 | 
3 | CN1CCN(Cc2ccc(-c3cnc4[nH]cc(-c5cccc6c5oc5ccccc56)c4c3)cc2)CC1 [Compound 7c, 3-(Dibenzo[b,d]furan-4-yl)-5-(4-((4-methylpiperazin-1-yl)methyl)phenyl)-1H-pyrrolo[2,3-b]pyridine] | 88.3 | 86.8 | 99.3 | 81.6 |  | 7.84 | 10.4 | 90.01 | 93.44 | Ambiguous
4 | C[C@@H](NC(=O)Nc1cccc(-c2c[nH]c3ncc(-c4ccc(CN5CCN(C)CC5)cc4)cc23)c1)c1ccccc1 [Compound 7ax, (R)-1-(3-(5-(4-((4-methylpiperazin-1-yl)methyl)phenyl)-1H-pyrrolo[2,3-b]pyridin-3-yl)phenyl)-3-(1-phenylethyl)urea] | 93.5 | 92.3 | 93.6 | 78.7 | 1440 | 17.4 | 35.5 | 90.99 | 86.58 | 
5 | CN1CCN(Cc2ccc(-c3cnc4[nH]cc(-c5ccc(Cl)cc5Cl)c4c3)cc2)CC1 [Compound 7ae, 3-(2,4-Dichlorophenyl)-5-(4-((4-methylpiperazin-1-yl)methyl)phenyl)-1H-pyrrolo[2,3-b]pyridine] | 92.5 | 91.8 | 67.9 | 42.7 | 533 | 32 | 32 | 84.17 | 86.93 | 
6 | CN1CCN(Cc2ccc(-c3cnc4[nH]cc(-c5ccc(N)cc5)c4c3)cc2)CC1 [Compound 7e, 4-(5-(4-((4-Methylpiperazin-1-yl)methyl)phenyl)-1H-pyrrolo[2,3-b]pyridin-3-yl)aniline] | 51.7 | 54 | 24 | 7.41 | 228 | 96.1 | 111 | 51.43 | 54.29 | 
7 | COC(=O)Nc1ccc(-c2c[nH]c3ncc(-c4ccc(CN5CCN(C)CC5)cc4)cc23)cc1 [Compound 7an, Methyl (4-(5-(4-((4-methylpiperazin-1-yl)methyl)phenyl)-1H-pyrrolo[2,3-b]pyridin-3-yl)phenyl)carbamate] | 68.7 | 65.4 | 39.9 | 10.2 | 534 | 75 | 100 | 65.74 | 63.06 | 
8 | CN1CCN(Cc2ccc(-c3cnc4[nH]ccc4c3)cc2)CC1 [Compound 4, 5-(4-((4-Methylpiperazin-1-yl)methyl)phenyl)-1H-pyrrolo[2,3-b]pyridine] | 95.9 | 93.5 | 101 | 88.3 |  | 10.3 | 13.7 | 91.95 | 94.97 | Ambiguous
9 | CN1CCN(Cc2ccc(-c3cnc4[nH]cc(-c5ccc(F)c(C(=O)O)c5)c4c3)cc2)CC1 [Compound 7i, 2-Fluoro-5-(5-(4-((4-methylpiperazin-1-yl)methyl)phenyl)-1H-pyrrolo[2,3-b]pyridin-3-yl)benzoic acid] | 80.2 | 79.4 | 85.3 | 54.6 |  | 7.82 | 13.3 | 57.91 | 50.75 | Ambiguous
10 | CN1CCN(Cc2ccc(-c3cnc4[nH]cc(-c5ccc(N)nc5)c4c3)cc2)CC1 [Compound 7m, 5-(5-(4-((4-Methylpiperazin-1-yl)methyl)phenyl)-1H-pyrrolo[2,3-b]pyridin-3-yl)pyridin-2-amine] | 96.7 | 96.3 | 38.4 | 10.8 | 213 | 76.1 | 76.1 | 67.62 | 67.85 | 
11 | CN1CCN(Cc2ccc(-c3cnc4[nH]cc(-c5ccc6[nH]ncc6c5)c4c3)cc2)CC1 [Compound 7v, 5-(5-(4-((4-Methylpiperazin-1-yl)methyl)phenyl)-1H-pyrrolo[2,3-b]pyridin-3-yl)-1H-indazole] | 43 | 44 | 13.8 | 2.9 | 143 | 115 | 128 | 33.57 | 32.45 | 
12 | CN1CCN(Cc2ccc(-c3cnc4[nH]cc(-c5cccc(NC(=O)NCc6ccco6)c5)c4c3)cc2)CC1 [Compound 7ay, 1-(Furan-2-ylmethyl)-3-(3-(5-(4-((4-methylpiperazin-1-yl)methyl)phenyl)-1H-pyrrolo[2,3-b]pyridin-3-yl)phenyl)urea] | 88.5 | 91.8 | 93.8 | 79 | 91.2 | 4.58 | 9.29 | 84.43 | 83.57 | 
13 | COc1ccc(COc2ccc(-c3c[nH]c4ncc(-c5ccc(CN6CCN(C)CC6)cc5)cc34)cc2)cc1 [Compound 7ao, 3-(4-((4-Methoxybenzyl)oxy)phenyl)-5-(4-((4-methylpiperazin-1-yl)methyl)phenyl)-1H-pyrrolo[2,3-b]pyridine] | 49 | 47.1 | 21.3 | 1.98 |  | 95.9 | 95.9 | 35.75 | 32.77 | Ambiguous
14 | Cc1ccc(C)c(-c2c[nH]c3ncc(-c4ccc(CN5CCN(C)CC5)cc4)cc23)c1 [Compound 7af, 3-(2,5-Dimethylphenyl)-5-(4-((4-methylpiperazin-1-yl)methyl)phenyl)-1H-pyrrolo[2,3-b]pyridine] | 92.6 | 90.6 | 69 | 38.7 | 1340 | 38.6 | 67.5 | 75.32 | 81.31 | 
15 | CN1CCN(Cc2ccc(-c3cnc4[nH]cc(-c5ccc(OC(F)(F)F)cc5)c4c3)cc2)CC1 [Compound 7z, 5-(4-((4-Methylpiperazin-1-yl)methyl)phenyl)-3-(4-(trifluoromethoxy)phenyl)-1H-pyrrolo[2,3-b]pyridine] | 98.6 | 99.2 | 96.4 | 67.9 |  | 11.2 | 12.8 | 93.59 | 94.16 | Ambiguous
